From patent US20230151017A1, “THERAPEUTIC AGENTS TARGETING GPR35” (PROMETHEUS BIOSCIENCES, INC., priority 2020, published 2023)

Molecular target: T1, Human GPR35 (Homo sapiens, UniProt Q9HC97)
T1 construct: Tango receptor fusion (protease cleavage site + Gal4-VP16 transcription factor); host or cells: Jump-In Tango U2OS cells
Assay: Beta-Arrestin Assay
Format: cell-based
Conditions: Human GPR35 expressing JumpIn 294S Tango U2OS cells; compounds overnight; LiveBLAzer-FRET B/G (CCF4-AM) readout
Protocol: Human GPR35 expressing JumpIn (Thermo Fisher) 294S Tango U2OS cells were plated in 384-well format in clear bottom plates at a cell density of 10,000 cells/well and allowed to adhere for 5 hours. Cells were then treated with serially diluted test compounds overnight. The next day, LiveBLAzer-FRET B/G (CCF4-AM) detection reagents were added, and cells were allowed to incubate for 4 hours in the dark at room temp before reading plates on a BioTek Cytation 5 plate reader. To determine EC50 values, data were fit to a four-parameter dose-response curves.

T1 sequence (Q9HC97 whole entry, the tested form may be a part): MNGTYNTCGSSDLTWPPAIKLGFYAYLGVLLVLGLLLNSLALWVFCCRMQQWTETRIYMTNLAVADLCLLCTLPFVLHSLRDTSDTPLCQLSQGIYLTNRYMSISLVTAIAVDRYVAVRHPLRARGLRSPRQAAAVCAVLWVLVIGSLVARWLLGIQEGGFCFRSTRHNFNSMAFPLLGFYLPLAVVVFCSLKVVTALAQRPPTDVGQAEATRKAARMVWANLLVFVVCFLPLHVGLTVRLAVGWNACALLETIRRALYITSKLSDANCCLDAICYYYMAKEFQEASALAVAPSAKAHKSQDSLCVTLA

Row | Structure (SMILES) | EC50 [nM]
1 | CCOc1cc(-c2cccc(CO)c2)ccc1-c1nc2[nH]nnc2c(=O)[nH]1 [Compound 104, 5-(3-Ethoxy-3′-(hydroxymethyl)-[1,1′-biphenyl]-4-yl)-3,6-dihydro-7H-[1,2,3]triazolo[4,5-d]pyrimidin-7-one] | ≤ 1000
2 | CCOc1cc(-c2cccc(CC3OC(=O)NC3=O)c2)ccc1-c1nc2[nH]nnc2c(=O)[nH]1 (stereo not shown) [Compound 125, 5-((3′-Ethoxy-4′-(7-oxo-6,7-dihydro-3H-[1,2,3]triazolo[4,5-d]pyrimidin-5-yl)-[1,1′-biphenyl]-3-yl)methyl)oxazolidine-2,4-dione] | ≤ 1000
3 | CCOc1cc(-c2cccc(CCC(N)=O)c2)ccc1-c1nc2[nH]nnc2c(=O)[nH]1 [Compound 119, 3-(3′-Ethoxy-4′-(7-oxo-6,7-dihydro-3H-[1,2,3]triazolo[4,5-d]pyrimidin-5-yl)-[1,1′-biphenyl]-3-yl)propanamide] | 1000 to 10000
4 | CCOc1cc(-c2cccc(CCO)c2)ccc1-c1nc2[nH]nnc2c(=O)[nH]1 [Compound 103, 5-(3-Ethoxy-3′-(2-hydroxyethyl)-[1,1′-biphenyl]-4-yl)-3,6-dihydro-7H-[1,2,3]triazolo[4,5-d]pyrimidin-7-one] | 1000 to 10000
5 | CCOc1cc(-c2ccc(OCCN)c(CCC(=O)O)c2)ccc1-c1nc2[nH]nnc2c(=O)[nH]1 [Compound 116, 3-(4-(2-Aminoethoxy)-3′-ethoxy-4′-(7-oxo-6,7-dihydro-3H-[1,2,3]triazolo[4,5-d]pyrimidin-5-yl)-[1,1′-biphenyl]-3-yl)propanoic acid] | ≤ 1000
6 | CCOc1cc(-c2cc(O)cc(/C=C/C(=O)O)c2)ccc1-c1nc2[nH]nnc2c(=O)[nH]1 [Compound 112, (E)-3-(3′-ethoxy-5-hydroxy-4′-(7-oxo-6,7-dihydro-3H-[1,2,3]triazolo[4,5-d]pyrimidin-5-yl)-[1,1′-biphenyl]-3-yl)acrylic acid] | ≤ 1000
7 | CCOc1cc(-c2cc(O)ccc2O)ccc1-c1nc2[nH]nnc2c(=O)[nH]1 [Compound 109, 5-(3-Ethoxy-2′,5′-dihydroxy-[1,1′-biphenyl]-4-yl)-3,6-dihydro-7H-[1,2,3]triazolo[4,5-d]pyrimidin-7-one] | ≤ 1000
8 | CCOc1cc(-c2cc(CCC(=O)O)cc(OCCN)c2)ccc1-c1nc2[nH]nnc2c(=O)[nH]1 [Compound 115, 3-(5-(2-aminoethoxy)-3′-ethoxy-4′-(7-oxo-6,7-dihydro-3H-[1,2,3]triazolo[4,5-d]pyrimidin-5-yl)-[1,1′-biphenyl]-3-yl)propanoic acid] | 1000 to 10000
9 | CCOc1cc(-c2ccc(O)c(O)c2)ccc1-c1nc2[nH]nnc2c(=O)[nH]1 [Compound 108, 5-(3-Ethoxy-3′,4′-dihydroxy-[1,1′-biphenyl]-4-yl)-3,6-dihydro-7H-[1,2,3]triazolo[4,5-d]pyrimidin-7-one] | ≤ 1000
10 | CCOc1cc(-c2cccc(CCc3nnn[nH]3)c2)ccc1-c1nc2[nH]nnc2c(=O)[nH]1 [Compound 124, 5-(3′-(2-(1H-Tetrazol-5-yl)ethyl)-3-ethoxy-[1,1′-biphenyl]-4-yl)-3,6-dihydro-7H-[1,2,3]triazolo[4,5-d]pyrimidin-7-one] | ≤ 1000
11 | CCOc1cc(-c2cccc(Cc3c(C)[nH]oc3=O)c2)ccc1-c1nc2[nH]nnc2c(=O)[nH]1 [Compound 126, 4-((3′-Ethoxy-4′-(7-oxo-6,7-dihydro-3H-[1,2,3]triazolo[4,5-d]pyrimidin-5-yl)-[1,1′-biphenyl]-3-yl)methyl)-3-methylisoxazol-5(2H)-one] | ≤ 1000
12 | CCOc1cc(-c2cc(O)cc(CCC(N)=O)c2)ccc1-c1nc2[nH]nnc2c(=O)[nH]1 [Compound 114, 3-(3′-Ethoxy-5-hydroxy-4′-(7-oxo-6,7-dihydro-3H-[1,2,3]triazolo[4,5-d]pyrimidin-5-yl)-[1,1′-biphenyl]-3-yl)propanamide] | ≤ 1000
13 | CCOc1cc(-c2ccc(S(N)(=O)=O)cc2)ccc1-c1nc2[nH]nnc2c(=O)[nH]1 [Compound 107, 3′-Ethoxy-4′-(7-oxo-6,7-dihydro-3H-[1,2,3]triazolo[4,5-d]pyrimidin-5-yl)-[1,1′-biphenyl]-4-sulfonamide] | 1000 to 10000
14 | CCOc1cc(-c2cccc(CC3SC(=O)NC3=O)c2)ccc1-c1nc2[nH]nnc2c(=O)[nH]1 (stereo not shown) [Compound 121, 5-((3′-Ethoxy-4′-(7-oxo-6,7-dihydro-3H-[1,2,3]triazolo[4,5-d]pyrimidin-5-yl)-[1,1′-biphenyl]-3-yl)methyl)thiazolidine-2,4-dione] | ≤ 1000
15 | CCOc1cc(-c2cccc(CCc3noc(=O)[nH]3)c2)ccc1-c1nc2[nH]nnc2c(=O)[nH]1 [Compound 122, 3-(2-(3′-Ethoxy-4′-(7-oxo-6,7-dihydro-3H-[1,2,3]triazolo[4,5-d]pyrimidin-5-yl)-[1,1′-biphenyl]-3-yl)ethyl)-1,2,4-oxadiazol-5(4H)-one] | ≤ 1000
16 | CCOc1cc(-c2cc(O)cc(CCC(=O)O)c2)ccc1-c1nc2[nH]nnc2c(=O)[nH]1 [Compound 113, 3-(3′-Ethoxy-5-hydroxy-4′-(7-oxo-6,7-dihydro-3H-[1,2,3]triazolo[4,5-d]pyrimidin-5-yl)-[1,1′-biphenyl]-3-yl)propanoic acid] | ≤ 1000
17 | CCOc1cc(-c2cccc(CCC(=O)NS(=O)(=O)N(C)C)c2)ccc1-c1nc2[nH]nnc2c(=O)[nH]1 [Compound 123, N—(N,N-Dimethylsulfamoyl)-3-(3′-ethoxy-4′-(7-oxo-6,7-dihydro-3H-[1,2,3]triazolo[4,5-d]pyrimidin-5-yl)-[1,1′-biphenyl]-3-yl)propanamide] | ≤ 1000
18 | CCOc1cc(-c2ccc(CO)cc2)ccc1-c1nc2[nH]nnc2c(=O)[nH]1 [Compound 105, 5-(3-Ethoxy-4′-(hydroxymethyl)-[1,1′-biphenyl]-4-yl)-3,6-dihydro-7H-[1,2,3]triazolo[4,5-d]pyrimidin-7-one] | ≤ 1000
19 | CCOc1cc(-c2cccc(/C=C3\SC(=O)NC3=O)c2)ccc1-c1nc2[nH]nnc2c(=O)[nH]1 [Compound 120, (Z)-5-((3′-Ethoxy-4′-(7-oxo-6,7-dihydro-3H-[1,2,3]triazolo[4,5-d]pyrimidin-5-yl)-[1,1′-biphenyl]-3-yl)methylene)thiazolidine-2,4-dione] | ≤ 1000
20 | CCOc1cc(-c2ccc(O)cc2O)ccc1-c1nc2[nH]nnc2c(=O)[nH]1 [Compound 110, 5-(3-Ethoxy-2′,4′-dihydroxy-[1,1′-biphenyl]-4-yl)-3,6-dihydro-7H-[1,2,3]triazolo[4,5-d]pyrimidin-7-one] | 1000 to 10000
21 | CCOc1cc(-c2cccc(S(N)(=O)=O)c2)ccc1-c1nc2[nH]nnc2c(=O)[nH]1 [Compound 106, 3′-Ethoxy-4′-(7-oxo-6,7-dihydro-3H-[1,2,3]triazolo[4,5-d]pyrimidin-5-yl)-[1,1′-biphenyl]-3-sulfonamide] | 1000 to 10000
22 | CCOc1cc(-c2cccc(CCC(=O)NO)c2)ccc1-c1nc2[nH]nnc2c(=O)[nH]1 [Compound 117, 3-(3′-Ethoxy-4′-(7-oxo-6,7-dihydro-3H-[1,2,3]triazolo[4,5-d]pyrimidin-5-yl)-[1,1′-biphenyl]-3-yl)-N-hydroxypropanamide] | 1000 to 10000
23 | CCOc1cc(-c2cccc(CCCO)c2)ccc1-c1nc2[nH]nnc2c(=O)[nH]1 [Compound 102, 5-(3-Ethoxy-3′-(3-hydroxypropyl)-[1,1′-biphenyl]-4-yl)-3,6-dihydro-7H-[1,2,3]triazolo[4,5-d]pyrimidin-7-one] | ≤ 1000
24 | CCOc1cc(-c2cccc(C(O)(O)C(F)(F)F)c2)ccc1-c1nc2[nH]nnc2c(=O)[nH]1 [Compound 127, 5-(3-Ethoxy-3′-(2,2,2-trifluoro-1,1-dihydroxyethyl)-[1,1′-biphenyl]-4-yl)-3,6-dihydro-7H-[1,2,3]triazolo[4,5-d]pyrimidin-7-one] | ≤ 1000
25 | CCOc1cc(-c2ccc(C(N)=O)cc2)ccc1-c1nc2[nH]nnc2c(=O)[nH]1 [Compound 101, 3′-Ethoxy-4′-(7-oxo-6,7-dihydro-3H-[1,2,3]triazolo[4,5-d]pyrimidin-5-yl)-[1,1′-biphenyl]-4-carboxamide] | ≤ 1000
26 | CCOc1cc(-c2cccc(CCC(=O)NOC)c2)ccc1-c1nc2[nH]nnc2c(=O)[nH]1 [Compound 118, 3-(3′-Ethoxy-4′-(7-oxo-6,7-dihydro-3H-[1,2,3]triazolo[4,5-d]pyrimidin-5-yl)-[1,1′-biphenyl]-3-yl)-N-methoxypropanamide] | 1000 to 10000
27 | CCOc1cc(-c2cc(O)cc(O)c2)ccc1-c1nc2[nH]nnc2c(=O)[nH]1 [Compound 111, 5-(3-Ethoxy-3′,5′-dihydroxy-[1,1′-biphenyl]-4-yl)-3,6-dihydro-7H-[1,2,3]triazolo[4,5-d]pyrimidin-7-one] | ≤ 1000
28 | CCOc1cc(-c2ccc(C(O)(O)C(F)(F)F)cc2)ccc1-c1nc2[nH]nnc2c(=O)[nH]1 [Compound 128, 5-(3-Ethoxy-4′-(2,2,2-trifluoro-1,1-dihydroxyethyl)-[1,1′-biphenyl]-4-yl)-3,6-dihydro-7H-[1,2,3]triazolo[4,5-d]pyrimidin-7-one] | ≤ 1000
